Values quoted from earlier work in publication PMC8287861 (Frontiers in Microbiology, 2021).
≈ marks a conversion by molar mass, not a printed value.

Experiments:
Parameters in all cases: method as in Lomovskaya et al. (2020b)
PAM4819 CTX-M-2 = settings: PAM4819, CTX-M-2, class A; ref Lomovskaya et al. (2020b)
PAM4820 CTX-M-25 = settings: PAM4820, CTX-M-25, class A; ref Lomovskaya et al. (2020b)
PAM4842 PER-2 = settings: PAM4842, PER-2, class A; ref Lomovskaya et al. (2020b)
PAM4908 VEB-1 = settings: PAM4908, VEB-1, class A; ref Lomovskaya et al. (2020b)
PAM4912 VEB-3 = settings: PAM4912, VEB-3, class A; ref Lomovskaya et al. (2020b)
PAM4938 VEB-9 = settings: PAM4938, VEB-9, class A; ref Lomovskaya et al. (2020b)
PAM4135 KPC-2 = settings: PAM4135, KPC-2, class A-CARB; ref Lomovskaya et al. (2020b)
PAM4689 KPC-3 = settings: PAM4689, KPC-3, class A-CARB; ref Lomovskaya et al. (2020b)
PAM4744 SME-2 = settings: PAM4744, SME-2, class A-CARB; ref Lomovskaya et al. (2020b)
PAM4676 BKC-1 = settings: PAM4676, BKC-1, class A-CARB; ref Lomovskaya et al. (2020b)
PAM4186 CMY-2 = settings: PAM4186, CMY-2, class C; ref Lomovskaya et al. (2020b)
PAM4745 P99 = settings: PAM4745, P99, class C; ref Lomovskaya et al. (2020b)
PAM4869 PDC-1 = settings: PAM4869, PDC-1, class C; ref Lomovskaya et al. (2020b)
PAM4792 OXA-2 = settings: PAM4792, OXA-2, class D; ref Lomovskaya et al. (2020b)
PAM4846 OXA-9 = settings: PAM4846, OXA-9, class D; ref Lomovskaya et al. (2020b)
PAM4875 OXA-23 = settings: PAM4875, OXA-23, class D-CARB; ref Lomovskaya et al. (2020b)
PAM4876 OXA-72 = settings: PAM4876, OXA-72, class D-CARB; ref Lomovskaya et al. (2020b)
PAM4179 NDM-1 = settings: PAM4179, NDM-1, class B1; ref Lomovskaya et al. (2020b)
PAM4798 VIM-2 = settings: PAM4798, VIM-2, class B1; ref Lomovskaya et al. (2020b)
PAM4888 IMP-4 = settings: PAM4888, IMP-4, class B1; ref Lomovskaya et al. (2020b)
PAM4889 IMP-26 = settings: PAM4889, IMP-26, class B1; ref Lomovskaya et al. (2020b)
PAM4879 CcrA1 = settings: PAM4879, CcrA1, class B1; ref Lomovskaya et al. (2020b)
PAM4880 L1 = settings: PAM4880, L1, class B3; ref Lomovskaya et al. (2020b)

SMILES: CC(C)(O/N=C(\C(=O)N[C@@H]1C(=O)N2C(C(=O)[O-])=C(C[n+]3ccccc3)CS[C@H]12)c1csc(N)n1)C(=O)O [Ceftazidime, ceftazidime]
- MIC (PAM4819 CTX-M-2): 1 mg/L (≈ 1.83 µM)
- MIC (PAM4820 CTX-M-25): 8 mg/L (≈ 14.6 µM)
- MIC (PAM4842 PER-2): >64 mg/L
- MIC (PAM4908 VEB-1): >64 mg/L
- MIC (PAM4912 VEB-3): >64 mg/L
- MIC (PAM4938 VEB-9): 256 mg/L (≈ 468 µM)
- MIC (PAM4135 KPC-2): 16 mg/L (≈ 29.3 µM)
- MIC (PAM4689 KPC-3): >64 mg/L
- MIC (PAM4744 SME-2): 0.5 mg/L (≈ 0.915 µM)
- MIC (PAM4676 BKC-1): 3 mg/L (≈ 5.49 µM)
- MIC (PAM4186 CMY-2): 16 mg/L (≈ 29.3 µM)
- MIC (PAM4745 P99): 64 mg/L (≈ 117 µM)
- MIC (PAM4869 PDC-1): 16 mg/L (≈ 29.3 µM)
- MIC (PAM4792 OXA-2): 8 mg/L (≈ 14.6 µM)
- MIC (PAM4846 OXA-9): 0.25 mg/L (≈ 0.457 µM)
- MIC (PAM4875 OXA-23): 0.25 mg/L (≈ 0.457 µM)
- MIC (PAM4876 OXA-72): 0.25 mg/L (≈ 0.457 µM)
- MIC (PAM4179 NDM-1): >64 mg/L
- MIC (PAM4798 VIM-2): 16 mg/L (≈ 29.3 µM)
- MIC (PAM4888 IMP-4): >64 mg/L
- MIC (PAM4889 IMP-26): >64 mg/L
- MIC (PAM4879 CcrA1): 4 mg/L (≈ 7.32 µM)
- MIC (PAM4880 L1): 64 mg/L (≈ 117 µM)

SMILES: CCN1CCN(C(=O)N[C@@H](C(=O)N[C@@H]2C(=O)N3[C@@H]2SC(C)(C)[C@@H]3C(=O)O)c2ccccc2)C(=O)C1=O [Piperacillin, piperacillin]
- MIC (PAM4819 CTX-M-2): 64 mg/L (≈ 124 µM)
- MIC (PAM4820 CTX-M-25): >64 mg/L
- MIC (PAM4842 PER-2): 1 mg/L (≈ 1.93 µM)
- MIC (PAM4908 VEB-1): 8 mg/L (≈ 15.5 µM)
- MIC (PAM4912 VEB-3): 8 mg/L (≈ 15.5 µM)
- MIC (PAM4938 VEB-9): 16 mg/L (≈ 30.9 µM)
- MIC (PAM4135 KPC-2): >64 mg/L
- MIC (PAM4689 KPC-3): >64 mg/L
- MIC (PAM4744 SME-2): 8 mg/L (≈ 15.5 µM)
- MIC (PAM4676 BKC-1): 32 mg/L (≈ 61.8 µM)
- MIC (PAM4186 CMY-2): 8 mg/L (≈ 15.5 µM)
- MIC (PAM4745 P99): 64 mg/L (≈ 124 µM)
- MIC (PAM4869 PDC-1): >64 mg/L
- MIC (PAM4792 OXA-2): 64 mg/L (≈ 124 µM)
- MIC (PAM4846 OXA-9): 8 mg/L (≈ 15.5 µM)
- MIC (PAM4875 OXA-23): 16 mg/L (≈ 30.9 µM)
- MIC (PAM4876 OXA-72): 16 mg/L (≈ 30.9 µM)
- MIC (PAM4179 NDM-1): 64 mg/L (≈ 124 µM)
- MIC (PAM4798 VIM-2): 16 mg/L (≈ 30.9 µM)
- MIC (PAM4888 IMP-4): 0.5 mg/L (≈ 0.966 µM)
- MIC (PAM4889 IMP-26): 0.125 mg/L (≈ 0.242 µM)
- MIC (PAM4879 CcrA1): 0.25 mg/L (≈ 0.483 µM)
- MIC (PAM4880 L1): 32 mg/L (≈ 61.8 µM)
